From patent US20190099523A1, “FILM-FORMING COMPOSITION FOR A PH-DEPENDANT SUSTAINED RELEASE OF THE ACTIVE AGENT” (YISSUM RESEARCH DEVELOPMENT COMPANY OF THE HEBREW …, priority 2011, published 2019)

Tests used:
Type in all cases: physicochemical
[1] = CHX release rate from films; settings: CHX-1 film; phosphate buffer, 37° C., 1-8 hours; FIG. 3
Protocol: Determining the CHX release rate from the films was conducted by first placing the films in 100 ml glass vessels, containing phosphate buffer at pH=5.0 and 6.8 and 50 cpm, at 37° C.
Then, 1 cc samples were taken from the glass vessels at pre-determined intervals (each hour from 1 to 8 hrs).
The released CHX concentration was measured spectrophotometrically at 260 nm (Uvikon 933: Kontron Instruments). The concentration of the CHX was calculated according to a reference curve.
(§1) In a different experiment, the films were kept at a pH 5.0 buffer for 2 hours, then at a pH 6.8 buffer for 2 hours, then at a pH 5.0 buffer for 2 hours and again at a pH 6.8 buffer for 2 hours. Samples were taken at similar intervals.

[2] = Clotrimazole release rate from films; settings: Clotrimazole-1 film
Protocol: Determining the clotrimazole release rate from the films was conducted by first placing the films in 350 ml glass vessels, containing Trizma base buffer (50 mM) with 0.2% SLS (sodium lauryl sulphate) at pH=5.0 and 6.8 and 50 cpm, at 37° C.
(§2) Then, 1 cc samples were taken from the glass vessels at pre-determined intervals (each hour from 1 to 8 hrs). The released clotrimazole concentration was measured spectrophotometrically at 206 nm (Uvikon 933: Kontron Instruments). The concentration of the CHX was calculated according to a reference curve.
In a different experiment, the films were kept at a pH 5.0 buffer for 2 hours, then kept at a pH 6.8 buffer for 2 hours, then at a pH 5.0 buffer for 2 hours and again at a pH 6.8 buffer for 2 hours. Samples were taken at similar intervals.

[3] = Triclosane release rate from films; settings: Tric-1 film; Trizma base buffer 50 mM +10% SLS, 37° C.; pH 5.0 / 6.8 / 5.0 / 6.8, 2 hours each; FIG. 6
Protocol: Determining the triclosane release rate from the films was conducted by first placing the films in 100 ml glass vessels, containing Trizma base buffer (50 mM, +10% SLS (sodium lauryl sulphate) at pH=5.0 and 6.8 at 50 rpm, at 37° C.
as §2, with “Then, 2” for “Then, 1”, “released triclosane” for “released clotrimazole”, “at 280” for “at 206”, “the triclosane” for “the CHX”
as §1

Structure (SMILES): CC(=O)O.CC(=O)O.NC(=N\CCCCCC/N=C(N)/N=C(\N)Nc1ccc(Cl)cc1)/N=C(\N)Nc1ccc(Cl)cc1 [CHX, Chlorhexidine-Diacetate]
- CHX release rate (as % of the initial amount in film), pH 5.0 compared with pH 6.8 [1]: higher release rate at pH 5.0

Structure (SMILES): Clc1ccccc1C(c1ccccc1)(c1ccccc1)n1ccnc1 [clotrimazole, Clotrimazole]
- clotrimazole release rate (as % of the initial amount in film), pH 5.0 compared with pH 6.8 ([2]; Trizma base buffer 50 mM with 0.2% SLS, 37° C., 1-8 hours, FIG. 1): much faster
- effect of pH 6.8 on clotrimazole release rate, pH change profile ([2]; pH 5.0 / 6.8 / 5.0 / 6.8, 2 hours each, FIG. 2): retards the rate of release

Structure (SMILES): Oc1cc(Cl)ccc1Oc1ccc(Cl)cc1Cl [triclosane, Triclosane]
- triclosane release rate at pH 5.0 compared with pH 6.8, pH change profile [3]: significantly faster
